This passage reports IC50 and cell proliferation results from paper PMC5399312 (Journal of Experimental & Clinical Cancer Research : CR, 2017).

One assay addresses T1, HK1 (Homo sapiens, UniProt P19367).
T1 construct: purchased Shanghai yuanye Bio-Technology Co., Ltd (China)
T1 sequence (P19367 1-917): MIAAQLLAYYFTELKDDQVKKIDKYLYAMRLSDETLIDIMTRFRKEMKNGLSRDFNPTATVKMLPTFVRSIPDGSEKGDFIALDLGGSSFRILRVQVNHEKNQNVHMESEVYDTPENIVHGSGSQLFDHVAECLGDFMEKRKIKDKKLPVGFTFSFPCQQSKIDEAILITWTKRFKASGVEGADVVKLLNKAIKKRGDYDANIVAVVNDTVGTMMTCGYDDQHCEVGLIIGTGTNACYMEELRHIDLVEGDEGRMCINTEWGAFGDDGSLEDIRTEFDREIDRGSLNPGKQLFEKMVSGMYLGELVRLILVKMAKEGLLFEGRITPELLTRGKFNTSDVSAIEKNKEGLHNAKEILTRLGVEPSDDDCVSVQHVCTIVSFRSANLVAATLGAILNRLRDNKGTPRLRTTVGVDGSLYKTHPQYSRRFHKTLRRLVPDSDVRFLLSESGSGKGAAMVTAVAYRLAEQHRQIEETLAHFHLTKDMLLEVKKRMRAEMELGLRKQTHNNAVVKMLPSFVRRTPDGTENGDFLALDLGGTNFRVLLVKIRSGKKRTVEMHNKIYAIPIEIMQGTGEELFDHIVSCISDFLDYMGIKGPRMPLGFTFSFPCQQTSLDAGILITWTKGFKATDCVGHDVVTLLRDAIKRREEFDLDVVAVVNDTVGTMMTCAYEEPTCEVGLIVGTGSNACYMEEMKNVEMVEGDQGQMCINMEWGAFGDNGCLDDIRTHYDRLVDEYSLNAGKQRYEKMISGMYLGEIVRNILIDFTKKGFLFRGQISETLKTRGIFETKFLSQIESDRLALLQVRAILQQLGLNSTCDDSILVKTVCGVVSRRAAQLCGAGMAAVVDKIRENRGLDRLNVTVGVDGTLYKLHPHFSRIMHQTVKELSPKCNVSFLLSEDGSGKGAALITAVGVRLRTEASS
Briefly: In vitro enzyme inhibition assay (G6P-DH coupled, NADH 340 nm). In kind it is biochemical. Particulars: recombinant HK1. Here is the method:
(§1) Then 85 μL assay mix containing 100 mM Tris HCl pH 8.0, 5 mM MgCl2, 200 mM Glucose, 0.8 mM ATP, 1 mM NAD^+, 0.25 Units of G6P-DH, was added.

A further assay concerns the target T2, HK2 (Homo sapiens, UniProt P52789).
T2 construct: made in house; host or cells: E. coli BL21 (DE3)
T2 sequence (P52789 1-917): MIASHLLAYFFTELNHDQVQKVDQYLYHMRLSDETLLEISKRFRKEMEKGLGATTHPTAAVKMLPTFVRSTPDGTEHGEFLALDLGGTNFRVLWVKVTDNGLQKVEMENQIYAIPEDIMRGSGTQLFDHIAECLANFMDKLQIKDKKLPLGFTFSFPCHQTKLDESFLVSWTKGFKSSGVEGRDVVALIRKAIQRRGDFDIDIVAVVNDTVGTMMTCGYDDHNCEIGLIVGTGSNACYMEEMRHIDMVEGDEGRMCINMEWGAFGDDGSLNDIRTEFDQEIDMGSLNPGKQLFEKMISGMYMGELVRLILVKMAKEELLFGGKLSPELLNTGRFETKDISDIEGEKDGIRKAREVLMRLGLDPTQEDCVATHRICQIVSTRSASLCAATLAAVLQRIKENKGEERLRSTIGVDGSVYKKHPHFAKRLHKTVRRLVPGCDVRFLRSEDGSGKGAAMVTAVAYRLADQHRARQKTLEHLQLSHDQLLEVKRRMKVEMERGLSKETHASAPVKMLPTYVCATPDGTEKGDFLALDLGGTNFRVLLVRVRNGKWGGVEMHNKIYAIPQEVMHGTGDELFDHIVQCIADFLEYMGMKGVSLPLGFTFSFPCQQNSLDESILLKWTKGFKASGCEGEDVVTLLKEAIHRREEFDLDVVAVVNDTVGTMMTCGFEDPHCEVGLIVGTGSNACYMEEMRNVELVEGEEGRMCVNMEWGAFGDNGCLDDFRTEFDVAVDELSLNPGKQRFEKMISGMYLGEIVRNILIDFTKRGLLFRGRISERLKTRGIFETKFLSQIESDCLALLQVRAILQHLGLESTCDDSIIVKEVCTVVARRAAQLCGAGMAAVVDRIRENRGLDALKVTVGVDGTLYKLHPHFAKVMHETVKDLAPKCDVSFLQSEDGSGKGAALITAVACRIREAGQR
The assay is described as above. The format is biochemical. Conditions: recombinant HK2; n.i means no enzyme inhibition; read-out: Enzyme IC50. Here is the method: as §1

The next assay concerns the target T3, HK4 (Homo sapiens, UniProt P35557).
T3 construct: made in house; host or cells: E. coli BL21 (DE3)
T3 sequence (P35557 1-465): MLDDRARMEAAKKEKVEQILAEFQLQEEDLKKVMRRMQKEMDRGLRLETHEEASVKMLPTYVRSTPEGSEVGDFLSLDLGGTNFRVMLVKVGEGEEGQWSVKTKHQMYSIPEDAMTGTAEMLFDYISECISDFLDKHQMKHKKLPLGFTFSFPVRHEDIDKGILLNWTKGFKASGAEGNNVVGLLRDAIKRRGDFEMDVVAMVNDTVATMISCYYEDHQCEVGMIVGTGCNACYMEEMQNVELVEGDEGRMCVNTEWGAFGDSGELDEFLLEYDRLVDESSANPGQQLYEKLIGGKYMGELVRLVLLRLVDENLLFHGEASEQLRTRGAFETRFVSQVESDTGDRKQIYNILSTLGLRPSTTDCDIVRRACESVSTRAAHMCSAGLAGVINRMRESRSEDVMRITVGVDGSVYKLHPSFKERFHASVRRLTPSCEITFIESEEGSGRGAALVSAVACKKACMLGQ
Described as above. Conditions: recombinant HK4. In kind it is biochemical. The protocol: as §1

The subject of the next assay is SW480 cells. Briefly: Cell proliferation assay (CCK-8). The format is cell-based, human. Particulars: 100, 200, 400 μM, 24-96 h. Here is the method:
(§2) HCT116 and SW480 cells were seeded at a density of 2 × 10^3 per well into 96-well plates. Cell proliferation was assessed by incubating them with Cell Counting Kit-8 reagents (Dojindo, Shanghai, China) for 24 h,48 h, 72 h, 96 h at 37 °C and measuring the absorbance at 450 nm. The experiment was performed in triplicate.

Another assay has as its system HCT116 cells. Briefly: Cell proliferation assay (CCK-8). In kind it is cell-based, human. Particulars: 100, 200, 400 μM, 24-96 h. The protocol: as §2

The structures appear in SMILES notation.

As to `NC(CO)C(=O)NNCc1ccc(O)c(O)c1O` (centres unmarked) [Benz, Benserazide], the IC50 (usually the concentration that gives 50% inhibition) on HK1 stood at 25.13 ± 0.24 µM; on HK2 it was 5.52 ± 0.17 µM; on HK4, 40.5 ± 2.94 µM. The cell proliferation result with SW480 cells and in the assay on HCT116 cells was “markedly inhibited proliferation” each time.
